Measurements published in patent publication US11484608B2, “Non-invasive assessment of hepatic mitochondrial metabolism by positional isotopomer NMR tracer analysis (PINTA)” (YALE UNIVERSITY, priority 2017, dated 2022).

Tests used:
glucocorticoid receptor = glucocorticoid receptor (Rattus norvegicus, UniProt P06536)
Protocol: 8, 16, and 48 hr fasted rats were injected with a small molecule inhibitor of glycogen phosphorylase, 1-(3-(3-(2-Chloro-4,5-difluorobenzoyl) ureido)-4-methoxyphenyl)-3-methylurea (Sigma #361515; 5 mg/kg IV) and a tracer infusion of [2,3,3,3-^2H4]alanine ([…]prime for 5 min and […] continuous) and [3-^3H]glucose (0.3 μCi/min prime for 5 min and 0.3 μCi/min continuous) as well as [^13C4] β-hydroxybutyrate, [1,1,2,3,3-^2H5]glycerol, and [^13C16]palmitate at the rates listed in Table 9, for 120 min. Blood samples were obtained before (time zero) and 120 min after treatment with the glycogen phosphorylase inhibitor for measurement of turnover rates and plasma hormone/substrate concentrations. Hepatic acetyl-CoA content was altered by treatment with a CPT-1 inhibitor (etomoxir, 8 mg/kg) or an ATGL inhibitor (atglistatin, […]) in 0, 6, 16, and 48 hr fasted rats. Both agents were solubilized by suspending the drug in 4% ethanol/96% normal saline, heating to 60° C., and sonicating, and were cooled to room temperature before they were injected intraperitoneally. […] In these animals plasma glucose concentrations were measured every 15 minutes and a variable infusion of 20% glucose (Pfizer Hospira, Lake Forest, Ill.) was used to maintain plasma glucose concentrations ˜3.6-3.7 mM. The physiologic role of glucocorticoids was assessed in 6 and 48 hr fasted rats by treatment with a glucocorticoid receptor antagonist, mifepristone. Following a 2 hr tracer infusion at the rates described above to assess fatty acid, glycerol, glucose, and β-hydroxybutyrate turnover, rats were injected with mifepristone (40 mg/kg) IV. The tracer infusion was continued and the tracer of each of the above substrates was again measured 2 hr after treatment with mifepristone.
All whole-body substrate turnover rates were calculated using the equation Turnover=([Tracer APE/Plasma APE]−1)*Infusion rate, where APE designates the atom percent enrichment measured by mass spectrometry as described below (Biochemical Analysis). All chemicals used for flux analysis were obtained from SIGMA. Turnover of glucose, glycerol, and β-hydroxybutyrate were determined by gas chromatography-mass spectrometry (GC-MS). Briefly, both glucose and glycerol were deprotonized with 5 volumes of methanol, derivitized with 3 volumes of 1:1 acetic anhydride:pyridine, heated to 65° C. for 20 min, and 1 volume of methanol was added, then GC-MS was used in CI mode to measure glucose enrichment and EI mode to measure glycerol enrichment, with turnover calculated using the equation above. β-Hydroxybutyrate was deprotonized with 5 volumes of methanol and derivitized with 3 volumes of n-butanol 4N HCl, after which the samples were heated to 65° C. for 60 min, evaporated under N2 gas, and re-suspended in […] of trifluoroacetic acid:methylene chloride (1:7). Fatty acid turnover was measured by determining the plasma palmitate enrichment by GC-MS. Samples were prepared for measurements of palmitate enrichment by evaporating […] plasma, dissolving in […] 1:1 chloroform:methanol and derivitizing with […] boron trifluoride/methanol, then heating to 100° C. for 5 min, adding 2 mL pentane and 1 mL water, and centrifuging at low speed for 5 min. […] Alanine turnover was determined in rats infused with [2,3,3,3-^2H4]alanine by preparing samples to measure alanine enrichment by GC/MS (CI mode) using the same protocol as was employed to measure β-hydroxybutyrate enrichment.

[1] = test system: primary hepatocytes (cytosolic and mitochondrial calcium); test: Ca2+ imaging in isolated hepatocytes; assay type: cell-based, mouse
Protocol: Primary hepatocytes were isolated by the Yale Liver Center from wild-type and InsP3R-I KO mice and plated on glass coverslips coated with Rat Collagen Type I. Cells were loaded with the ratiometric cytosolic Ca^2+ indicator dye, Fura-2 AM (Thermo Fisher Scientific), or the mitochondrial matrix-targeted Ca^2+ indicator, Rhod-2 AM (Thermo Fisher Scientific) according to manufacturer's instructions. Ca^2+ imaging experiments were performed in 4-(2-hydroxyethyl)-1-piperazine ethanesulfonic acid (HEPES)-buffered balanced salt solution (25 mM HEPES, 121 mM NaCl, 4.7 mM KCl, 1.2 mM MgSO4, 1.2 mM KPO4, 5 mM NaHCO3, 2.0 mM CaCl2, 10 mM Glucose, pH 7.4) with or without the PKA inhibitor H-89 (25 μM) two to five hr following initial plating. Coverslips were transferred to a custom-built perfusion chamber on the stage of an inverted microscope connected to a RedShirtImaging camera (Olympus Life Science, Waltham, Mass.). […] For cytoplasmic calcium readings, changes in fluorescence (F, λ=340) were normalized by the initial fluorescence (F0, λ=380) and were expressed as F/F0. […] Individual cell responses were normalized to their respective baseline Rhod-2 AM fluorescence values, and changes were expressed as Normalized Δ Fluorescence.

[2] = test system: primary mouse hepatocytes; test: In vitro glucose production, VPC and lipolysis in isolated hepatocytes; assay type: cell-based
Summary of the method: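 Primary mouse hepatocytes were plated and cultured overnight in low-glucose DMEM, with 10% FBS for glucose production or serum-free 0.5% BSA medium for lipolysis. Media were then collected after 8 hr at 37° C for glucose, NEFA and glycerol, and VPC was derived as the PINTA VPC/VEGP ratio × glucose production. Agents were present through the 8-hr assay, and values were normalized to total protein and expressed as fold change vs vehicle.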

[3] = 48-hr fasted rats, 40 mg/kg IV, 2 hr
[4] = hepatocytes, 100 nM vasopressin
[5] = WT hepatocytes, 100 nM glucagon, 8 hr

glucocorticoid receptor, sequence (P06536 whole entry, the tested form may be a part): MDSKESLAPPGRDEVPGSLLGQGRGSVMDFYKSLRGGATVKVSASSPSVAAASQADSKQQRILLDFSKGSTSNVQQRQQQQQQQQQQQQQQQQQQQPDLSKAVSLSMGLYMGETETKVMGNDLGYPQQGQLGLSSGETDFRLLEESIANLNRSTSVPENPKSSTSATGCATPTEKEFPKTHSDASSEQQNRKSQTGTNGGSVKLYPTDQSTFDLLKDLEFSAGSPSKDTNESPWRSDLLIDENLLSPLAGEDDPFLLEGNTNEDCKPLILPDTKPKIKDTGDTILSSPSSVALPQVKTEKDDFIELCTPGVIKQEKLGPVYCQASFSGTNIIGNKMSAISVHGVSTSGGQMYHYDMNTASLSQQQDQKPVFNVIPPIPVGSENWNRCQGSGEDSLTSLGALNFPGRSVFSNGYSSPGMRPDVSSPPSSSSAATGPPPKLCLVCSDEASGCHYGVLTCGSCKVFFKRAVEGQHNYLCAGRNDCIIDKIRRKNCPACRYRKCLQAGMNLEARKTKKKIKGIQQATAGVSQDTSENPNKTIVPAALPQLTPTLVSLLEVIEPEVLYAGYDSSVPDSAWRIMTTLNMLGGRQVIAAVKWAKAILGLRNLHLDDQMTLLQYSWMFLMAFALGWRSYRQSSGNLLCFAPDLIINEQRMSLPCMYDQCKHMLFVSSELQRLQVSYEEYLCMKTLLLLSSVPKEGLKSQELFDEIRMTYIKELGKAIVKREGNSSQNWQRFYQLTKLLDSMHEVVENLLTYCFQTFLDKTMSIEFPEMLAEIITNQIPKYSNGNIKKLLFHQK

Structure (SMILES): CC#C[C@]1(O)CC[C@H]2[C@@H]3CCC4=CC(=O)CCC4=C3[C@@H](c3ccc(N(C)C)cc3)C[C@@]21C [mifepristone]
- reduction in plasma leptin concentrations (glucocorticoid receptor; 48-hr fasted rats): 60%
- WAT lipolysis (glucocorticoid receptor; [3]): decreased
- ketogenesis (glucocorticoid receptor; [3]): decreased
- plasma glucose concentrations (glucocorticoid receptor; [3]): decreased
- whole-body glucose turnover (glucocorticoid receptor; [3]): decreased
- WAT lipolysis, whole body glucose turnover, or plasma glucose or insulin concentrations (glucocorticoid receptor; recently fed rats (6 hr)): no impact

Structure (SMILES): NC(=O)CC[C@@H]1NC(=O)[C@H](Cc2ccccc2)NC(=O)[C@H](Cc2ccc(O)cc2)NC(=O)[C@@H](N)CSSC[C@@H](C(=O)N2CCC[C@H]2C(=O)N[C@@H](CCCN=C(N)N)C(=O)NCC(N)=O)NC(=O)[C@H](CC(N)=O)NC1=O [vasopressin]
- mitochondrial and cytosolic calcium signaling ([1]; isolated WT hepatocytes (not InsP3R-I KO), 100 nM glucagon or 50 nM vasopressin): almost identical increase
- VPC (effect of glucagon) [2, 4]: recapitulated
- glucose production (effect of glucagon) [2, 4]: recapitulated
- intrahepatic lipolysis (effect of glucagon) ([2]; hepatocytes, vasopressin): recapitulated

Structure (SMILES): O=S(=O)(NCCNC/C=C/c1ccc(Br)cc1)c1cccc2cnccc12 [H-89, H-89 dichloroacetate hydrate]
- calcium response to glucagon ([1]; WT hepatocytes, H-89 25 μM): abrogated
- glucagon-stimulated VPC flux [2, 5]: abrogated
- glucagon-stimulated glucose production [2, 5]: abrogated
- effect of glucagon to stimulate intrahepatic lipolysis ([2]; isolated hepatocytes): abrogated
